Laboratory results reported in patent US20090253131A1, “HYBRID FUSION REPORTER AND USES THEREOF” (Promega Corporation, priority 2007, published 2009).

Columns and labels:
DhaA.H272F = DhaA.H272F (Rhodococcus rhodochrous, UniProt P0A3G2, H272F); assay: Binding of labeled chloroalkane substrates to DhaA.H272F
Text: (§1) Carboxytetramethylrhodamine-C10H21NO2—Cl, carboxyfluorescein-C10H21NO2—Cl, and 5-carboxy-X-rhodamine-C10H21NO2—Cl bound to DhaA.H272F but not to DhaA.WT. Biotin-C10H21NO2—Cl bound to DhaA.H272F but not to DhaA.WT.

DhaA.WT = DhaA.WT (Rhodococcus rhodochrous, UniProt P0A3G2); assay: Binding of labeled chloroalkane substrates to wild type DhaA
Text: as §1

streptavidin = streptavidin (Streptomyces avidinii, UniProt P22629); settings: surface plasmon resonance; cited from earlier work
[1] = molecular target: cyclic AMP dependent protein kinase catalytic subunit (Homo sapiens, UniProt P17612); settings: cited from earlier work
[2] = molecular target: catalytic subunit of protein kinase A (Homo sapiens, UniProt P17612); settings: cited from earlier work

| Compound | binding to DhaA.H272F (DhaA.H272F) | binding to DhaA.WT (DhaA.WT) | other results |
| --- | --- | --- | --- |
| 5-carboxy-X-rhodamine-C10H21NO2—Cl | bound | not | – |
| O=C(CCCC[C@@H]1SC[C@@H]2NC(=O)N[C@@H]21)NCCOCCOCCCCCCCl [Biotin-C10H21NO2—Cl] | bound | not | – |
| O=C(O)CCCC[C@@H]1SC[C@@H]2NC(=O)N[C@@H]21 [biotin] | – | – | on-rate for biotin-streptavidin interaction (streptavidin): 5e+06 M⁻¹ s⁻¹ |
| O=C(NCCOCCOCCCCCCCl)c1ccc(-c2c3ccc(=O)cc-3oc3cc(O)ccc23)c(C(=O)O)c1 [carboxyfluorescein-C10H21NO2—Cl] | bound | not | – |
| Carboxytetramethylrhodamine-C10H21NO2—Cl | bound | not | – |
| LRRASLG | – | – | reduction of activity on addition of kinase catalytic subunit [1]: 30% |
| RRFS: Photinus pyralis luciferase with valine 217 mutated to arginine generating site RRFS (Sala-Newby et al.) | – | – | decrease of activity when phosphorylated [2]: up to 80% |
